Key:
[1] = tested on: class I HDAC (e.g., HDAC1, HDAC2, HDAC3); details: cited from earlier work
iPSC-derived EHT cells = test: RNA-seq of G9a-inhibitor treated EHT cells, PANTHER overrepresentation test; format: cell-based, human; details: for Client Text Box Input (fold Enrichment): UNC0224 treated vs control EHT cells
Method: RNA-seq analysis was performed on the same samples as in FIG. 6A.

[2] = tested on: iPSC-derived CD34+CD45+ HSPCs; test: ATAC-seq of iPSC-derived CD34+CD45+ HSPCs treated during EHT; format: cell-based, human; details: 500 nM or 1 μM during conversion of HE into HSPCs for 5 days, versus DMSO
Method: FIGS. 6A-6C are a series of schematics and graphs showing that G9a modulates chromatin accessibility of lymphoid genes. FIG. 6A is a schematic showing the experimental design. FIG. 6B is a heatmap showing assay for transposase-accessible chromatin using sequencing (ATAC-seq) peaks enriched in iPSC-derived CD34+CD45+ HSPCs that were treated with control vehicle (“DMSO”), 500 nM of UNC0224 (“UNC low”), or 1 μM of UNC0224 (“UNC high”) during the conversion of CD34+CD45− HE into CD34+CD45+ HSPCs for 5 days; 5 peaks are shown, labeled K1-K5.
FIGS. 6A-6C show the mechanism by which G9a (EHMT2) regulates lymphoid fate decision in iPSC-derived HSPCs (iPSC-HSPCs). The iPSCs were first differentiated into CD34+ HEs, and the cells were then treated with DMSO or G9a inhibitor UNC0224 during the EHT stage, which allowed the HEs to specify into CD34+CD45+ HSPCs. ATAC-seq analysis was then performed on these iPSC-HSPCs to detect ATAC peaks that indicated accessible chromatin regions (as indicated by higher ATAC-seq scores).

MDA-MB-231 cells = details: in MDA-MB-231 cells; cited from earlier work
[3] = tested on: iPS-derived CD34+ hemogenic endothelial cells; test: Stroma-free differentiation on DLL4-coated plates; format: cell-based, human
Method: FIG. 2 is a series of flow cytometry plot showing cells produced from a stroma-free differentiation protocol, which can be used to more specifically generate T or NK cells after 5 weeks. The culture conditions for T cells included: (i) EB-derived CD34^+ hemogenic endothelium (HE) on DLL4 coating (10 μg/ml), and (ii) IL-7 (50 ng/ml), SCF (100 ng/ml), Flt3 (100 ng/ml), and TPO (50 ng/ml, first 2 weeks). For more details concerning the stroma-free T cell differentiation protocol, see, e.g., International PCT publication WO 2021/150919, the content of which is incorporated herein by reference in its entirety. The culture conditions for NK cells included: EB-derived CD34^+ hemogenic endothelium (HE) on DLL4 coating (5 μg/ml), IL7 (10 ng/ml), SCF (50 ng/ml), and Flt3 (50 ng/ml).
Hemogenic CD34^+ endothelial cells were first derived from iPS (Example 2). The iPS-derived CD34^+ hemogenic endothelial cells were cultured on tissue culture plates coated with Notch ligands (e.g., DLL4; e.g., 5 μg/ml or 10 μg/ml in PBS, 3 hours in room temperature) using media containing a cocktail of growth factors (e.g., Flt3, SCF, IL7). […]

G9a (EHMT2) = test: Stroma-free NK cell differentiation with CRISPRi G9a (EHMT2) knockdown; format: cell-based, human; details: G9a knockdown by Dox induced CRISPRi for 14 days, representative flow cytometry plot
From the text: FIGS. 5A-5C are a series of schematics and graphs showing that G9a (also referred to herein as EHMT2) repression promoted NK cell differentiation. FIG. 5A is a schematic showing the experimental design. FIG. 5B is representative flow cytometry results showing the production of CD5-CD56+NK cells from control iPSCs or iPSCs with EHMT2 (G9a) knockdown by doxycycline (Dox) induced CRISPRi (see, e.g., SEQ ID NO: 50) for 14 days. […] FIG. 5C is a dot pot showing the frequencies of CD5-CD56+NK cells derived from control iPSCs or iPSCs with EHMT2 (G9a) knockdown (n=3, * P<0.05).
The iPSCs were then differentiated into CD34+HE cells and treated with Dox to induce G9a knockdown. The control or Dox treated cells were then differentiated into CD7+ lymphoid progenitors and eventually CD5-CD56+NK cells using the stroma-free methods described herein (see, e.g., Table 1).

Cn1cc(/C=C/C(=O)c2cccc(F)c2)cc1/C=C/C(=O)NO [MC1568]
inhibition of class I HDAC activity [1]: Class II HDAC (e.g., HDAC4 and HDAC5) inhibitor. Displays no inhibition of class I HDAC activity (e.g., HDAC1, HDAC2, HDAC3).

COc1cc2c(NC3CCN(C)CC3)nc(N3CCCN(C)CC3)nc2cc1OCCCN(C)C [UNC0224]
Client Text Box Input (fold Enrichment) (iPSC-derived EHT cells; B cell mediated immunity (GO:0019724)): 7.3
Client Text Box Input (fold Enrichment) (iPSC-derived EHT cells; T cell activation (GO:0042110)): 14.53
Client Text Box Input (fold Enrichment) (iPSC-derived EHT cells; T cell differentiation (GO:0030217)): 18.46
Client Text Box Input (fold Enrichment) (iPSC-derived EHT cells; adaptive immune response (GO:0002250)): 6.79
Client Text Box Input (fold Enrichment) (iPSC-derived EHT cells; adaptive immune response based on somatic recombination of immune receptors built from immunoglobulin superfamily domains (GO:0002460)): 7.89
Client Text Box Input (fold Enrichment) (iPSC-derived EHT cells; antigen processing and presentation (GO:0019882)): 29.42
Client Text Box Input (fold Enrichment) (iPSC-derived EHT cells; cell activation (GO:0001775)): 5.69
Client Text Box Input (fold Enrichment) (iPSC-derived EHT cells; cell-cell adhesion (GO:0098609)): 4.83
Client Text Box Input (fold Enrichment) (iPSC-derived EHT cells; cellular component assembly (GO:0022607)): 2.21
Client Text Box Input (fold Enrichment) (iPSC-derived EHT cells; cellular component biogenesis (GO:0044085)): 2.44
Client Text Box Input (fold Enrichment) (iPSC-derived EHT cells; cellular component organization or biogenesis (GO:0071840)): 1.63
Client Text Box Input (fold Enrichment) (iPSC-derived EHT cells; cellular protein-containing complex assembly (GO:0034622)): 4.21
Client Text Box Input (fold Enrichment) (iPSC-derived EHT cells; gene expression (GO:0010467)): 1.58
Client Text Box Input (fold Enrichment) (iPSC-derived EHT cells; immune effector process (GO:0002252)): 6.63
Client Text Box Input (fold Enrichment) (iPSC-derived EHT cells; immune response (GO:0006955)): 2.87
Client Text Box Input (fold Enrichment) (iPSC-derived EHT cells; immune system process (GO:0002376)): 2.61
Client Text Box Input (fold Enrichment) (iPSC-derived EHT cells; immunoglobulin mediated immune response (GO:0016064)): 7.3
Client Text Box Input (fold Enrichment) (iPSC-derived EHT cells; leukocyte activation (GO:0045321)): 6.09
Client Text Box Input (fold Enrichment) (iPSC-derived EHT cells; leukocyte cell-cell adhesion (GO:0007159)): 15.11
Client Text Box Input (fold Enrichment) (iPSC-derived EHT cells; leukocyte mediated immunity (GO:0002443)): 7.27
Client Text Box Input (fold Enrichment) (iPSC-derived EHT cells; lymphocyte activation (GO:0046649)): 6.42
Client Text Box Input (fold Enrichment) (iPSC-derived EHT cells; lymphocyte mediated immunity (GO:0002449)): 7.62
Client Text Box Input (fold Enrichment) (iPSC-derived EHT cells; positive regulation of T cell activation (GO:0050870)): 22.09
Client Text Box Input (fold Enrichment) (iPSC-derived EHT cells; positive regulation of biological process (GO:0048518)): 2.02
Client Text Box Input (fold Enrichment) (iPSC-derived EHT cells; positive regulation of cell activation (GO:0050867)): 6.29
Client Text Box Input (fold Enrichment) (iPSC-derived EHT cells; positive regulation of cell adhesion (GO:0045785)): 17.95
Client Text Box Input (fold Enrichment) (iPSC-derived EHT cells; positive regulation of cell-cell adhesion (GO:0022409)): 21.54
Client Text Box Input (fold Enrichment) (iPSC-derived EHT cells; positive regulation of cellular process (GO:0048522)): 2.11
Client Text Box Input (fold Enrichment) (iPSC-derived EHT cells; positive regulation of immune system process (GO:0002684)): 5.43
Client Text Box Input (fold Enrichment) (iPSC-derived EHT cells; positive regulation of leukocyte activation (GO:0002696)): 6.29
Client Text Box Input (fold Enrichment) (iPSC-derived EHT cells; positive regulation of leukocyte cell-cell adhesion (GO:1903039)): 22.09
Client Text Box Input (fold Enrichment) (iPSC-derived EHT cells; positive regulation of lymphocyte activation (GO:0051251)): 6.53
Client Text Box Input (fold Enrichment) (iPSC-derived EHT cells; production of molecular mediator of immune response (GO:0002440)): 7.58
Client Text Box Input (fold Enrichment) (iPSC-derived EHT cells; protein-containing complex assembly (GO:0065003)): 3.99
Client Text Box Input (fold Enrichment) (iPSC-derived EHT cells; protein-containing complex subunit organization (GO:0043933)): 3.43
Client Text Box Input (fold Enrichment) (iPSC-derived EHT cells; regulation of T cell activation (GO:0050863)): 16.25
Client Text Box Input (fold Enrichment) (iPSC-derived EHT cells; regulation of cell activation (GO:0050865)): 5.42
Client Text Box Input (fold Enrichment) (iPSC-derived EHT cells; regulation of cell adhesion (GO:0030155)): 10.77
Client Text Box Input (fold Enrichment) (iPSC-derived EHT cells; regulation of cell-cell adhesion (GO:0022407)): 15.11
Client Text Box Input (fold Enrichment) (iPSC-derived EHT cells; regulation of immune system process (GO:0002682)): 4.07
Client Text Box Input (fold Enrichment) (iPSC-derived EHT cells; regulation of leukocyte activation (GO:0002694)): 5.49
Client Text Box Input (fold Enrichment) (iPSC-derived EHT cells; regulation of leukocyte cell-cell adhesion (GO:1903037)): 16.89
Client Text Box Input (fold Enrichment) (iPSC-derived EHT cells; regulation of lymphocyte activation (GO:0051249)): 5.82
RNA-seq gene expression change (iPSC-derived EHT cells; treated versus control EHT cells): upregulation of genes associated with lymphoid development and function
ATAC-seq peaks upregulated in treated cells [2]: associated with genes that are responsible for lymphoid differentiation/function

COc1cc2c(NC3CCN(CC4CCCCC4)CC3)nc(N3CCCN(C(C)C)CC3)nc2cc1OCCCN1CCCCC1 [UNC0631]
IC50 (MDA-MB-231 cells): 25 nM

COc1cc2c(NC3CCN(C4CCCCC4)CC3)nc(N3CCCN(C(C)C)CC3)nc2cc1OCCCN1CCCCC1 [UNC0646]
IC50 (MDA-MB-231 cells): 26 nM

DLL4: Notch ligand Delta-like-4, coated on tissue culture plates
lineage outcome of differentiation ([3]; higher concentration of DLL4 coating (e.g., 10 μg/ml)): promotes T cell differentiation
lineage outcome of differentiation ([3]; lower concentration of DLL4 coating (e.g., 5 μg/ml)): facilitates the generation of CD56^+ NK cells

SEQ ID NO: 50: G9a CRISPRi gRNA: AATGGCCAAAAAGCATGTAG (chemistry not given here)
CD5-CD56+NK cells (G9a (EHMT2)): 64.7%

From US20240158750A1, “STROMA-FREE NK CELL DIFFERENTIATION FROM HUMAN PLURIPOTENT STEM CELLS” (The Children's Medical Center Corporation, priority 2021, published 2024)
